≈ marks a conversion by molar mass, not a printed value.
How the values were obtained:
[1] = tested on: Enterococcus faecium Vancomycin-sensitive (second listed); experiment: Anti-bacterial activity, broth culture MIC; assay type: cell-based; conditions: Enterococcus faecium Vancomycin-sensitive (r13/r14), broth culture, triplicate; for MIC: read-out: Approximate Minimum Inhibitory Concentration, MIC
Method: (§1) Several uncharged or negatively charged triterpenes, and several positively charged triterpenes of the invention were tested for anti-bacterial activity against antibiotic-susceptible and antibiotic resistant strains of four types of bacteria of concern in clinics and hospitals. The triterpenes weres tested in broth culture in triplicate for ability to inhibit bacterial growth. The compounds tested are those listed below.
(§2) The lowest concentration which inhibits bacterial growth is referred to as the minimum inhibitory concentration (MIC), the standard measurement of anti-microbial activity.

[2] = tested on: Enterococcus faecium Vancomycin-sensitive (first listed); experiment: Anti-bacterial activity, broth culture MIC; assay type: cell-based; conditions: Enterococcus faecium Vancomycin-sensitive (r11/r12), broth culture, triplicate; for MIC: read-out: Approximate Minimum Inhibitory Concentration, MIC
Method: as §1, §2

[3] = tested on: Staphylococcus aureus Methicillin-sensitive; experiment: Anti-bacterial activity, broth culture MIC; assay type: cell-based; conditions: Staphylococcus aureus Methicillin-sensitive, broth culture, triplicate; for MIC: read-out: Approximate Minimum Inhibitory Concentration, MIC
Method: as §1, §2

[4] = tested on: Staphylococcus aureus Methicillin-resistant; experiment: Anti-bacterial activity, broth culture MIC; assay type: cell-based; conditions: Staphylococcus aureus Methicillin-resistant, broth culture, triplicate; for MIC: read-out: Approximate Minimum Inhibitory Concentration, MIC
Method: as §1, §2

[5] = Turf plot trial at Clemson University (Example 85), turf quality; assay type: in vivo, creeping bentgrass, cv. Pennlinks; conditions: 1 to 9 scale, 50 grams active ingredient per 1000 square feet
Method: (§3) Plots of creeping bentgrass, cv. “Pennlinks,” were treated with water based sprays of the test compounds. Sprays were delivered by CO2-charged sprayer to deliver the equivalent of 2 gallons of spray per 1000 sq. ft of plot area. Plots were 15 sq. ft. each, and treatments were mixed to apply material to 75 sq. ft (5 replicates), although only 4 replicates were treated. […] Daconil Ultrex® was applied at 3.2 oz./1000 sq. ft. for 14 days. The experiment used a randomized complete block design, with 4 replicates per treatment. Disease pressure was high. Pennlinks […] is moderately to highly susceptible to both dollar spot and brown patch. For brown patch, caused by Rhozoctonia sofani. a visual estimate of the percent of the plot area affected was recorded. Turf quality was estimated on a 1 to 9 scale, with 1 being worst and 9 being perfect. A rating of 6 is considered acceptable.
(§4) Plots of creeping bentgrass, cv. Pennlinks, were treated with water-based sprays as in Example 84 at Clemson University. Treatment application dates were May 7. May 14, May 28, and June 11. Plots were rated visually, estimating the percent of the area affected by dollar spot fungus […]. Turf quality was rated on a 1 to 9 scale, with 9 being perfect turf, as in Example 84. Disease pressure was moderately high to high when the trial was initiated, with existing dollar spot present.

dollar spot fungus = experiment: Turf plot trial at Clemson University (Example 85), area affected by dollar spot; assay type: in vivo, Agrostis stolonifera; conditions: 50 grams active ingredient per 1000 square feet
Method: as §3, §4

[6] = tested on: dollar spot fungus (Agrostis stolonifera); experiment: as above; assay type: in vivo; conditions: for % of area infected: 50 grams active ingredient per 1000 square feet
Method: as §3, §4

Which MIC [1] does the source give for `C=C(C)[C@@H]1CC[C@]2(CO)CC[C@]3(C)C(CCC4[C@@]5(C)CC[C@H](OC(=O)C[N+]67CCN(CC6)CC7)C(C)(C)C5CC[C@]43C)C12.[Cl-]` (stereo partly shown) [Compound 6] here?
The MIC was 10 µg/mL.

What about the MIC [2] of the same compound?
Its MIC is 5 µg/mL.

And the MIC [3]?
The MIC was 2 µg/mL.

What about the MIC [4] of the same compound?
The MIC was 2 µg/mL.

What does the source list for `C=C(C)[C@@H]1CC[C@]2(COC(=O)C(C)[N+]34CCN(CC3)CC4)CC[C@]3(C)C(CCC4[C@@]5(C)CC[C@H](OC(=O)C(C)[N+]67CCN(CC6)CC7)C(C)(C)C5CC[C@]43C)C12.Cl.Cl` (stereo partly shown) [Compound 22, Lup-20(29)-ene-3,28-bis[N-(1,4-diazabicyclo [2.2.2]octyl)-2-propionate]-dichloride]?
Turf quality ([5]; Table 5, Jun. 3, 2002): 4.80 abc; Turf quality ([5]; Table 5, Jun. 17, 2002): 5.07 ab; Turf quality ([5]; Table 5, May 27, 2002): 3.05 b; Turf quality ([5]; Table 6, May 8, 2002): 3.00 a; Turf quality ([5]; Table 6, May 13, 2002): 3.13 a; Turf quality ([5]; Table 6, May 20, 2002): 2.95 ab; % of area infected (dollar spot fungus; Table 5 c2, Jun. 3, 2002): 24.5 a %; % of area infected (dollar spot fungus; Table 5 c4, Jun. 3, 2002): 17.3 ab %; % of area infected (dollar spot fungus; Table 6, May 8, 2002): 34.3 a %; % of area infected (dollar spot fungus; Table 6, May 13, 2002): 28.5 a %; % of area infected (dollar spot fungus; Table 6, May 20, 2002): 31.5 bc %; % of area infected (dollar spot fungus; Table 6, May 27, 2002): 32.0 ab %

For `C=C(C)[C@@H]1CC[C@]2(COC(=O)C[N+](C)(C)CCCCCCCC)CC[C@]3(C)C(CCC4[C@@]5(C)CC[C@H](OC(=O)C[N+](C)(C)CCCCCCCC)C(C)(C)C5CC[C@]43C)C12.[Cl-].[Cl-]` (stereo partly shown) [Compound 53, Lup-20(29)-ene-3,28-bis(octyldimethylammoniumacetate) dichloride], which Turf quality ([5]; Table 5, Jun. 3, 2002) is on record?
The Turf quality was 5.18 ab.

What about the Turf quality ([5]; Table 5, Jun. 17, 2002) of the same compound?
Its Turf quality is 5.38 ab.

And the Turf quality ([5]; Table 5, May 27, 2002)?
The Turf quality was 3.60 ab.

What about the Turf quality ([5]; Table 6, May 8, 2002) of the same compound?
Its Turf quality is 3.00 a.

And the Turf quality ([5]; Table 6, May 13, 2002)?
The Turf quality was 3.05 a.

What about the Turf quality ([5]; Table 6, May 20, 2002) of the same compound?
Its Turf quality is 3.25 ab.

And the “% of area infected” value (dollar spot fungus; Table 5 c2, Jun. 3, 2002)?
The value was 22.5 a %.

What about the “% of area infected” value (dollar spot fungus; Table 5 c4, Jun. 3, 2002) of the same compound?
Its value is 19.5 ab %.

What about the “% of area infected” value (dollar spot fungus; Table 6, May 8, 2002) of the same compound?
The value was 33.5 a %.

What about the “% of area infected” value (dollar spot fungus; Table 6, May 13, 2002) of the same compound?
The value was 28.5 a %.

And the “% of area infected” value (dollar spot fungus; Table 6, May 20, 2002)?
The value was 27.3 bc %.

What about the “% of area infected” value (dollar spot fungus; Table 6, May 27, 2002) of the same compound?
The value was 26.8 bcd %.

With `C=C(C)[C@@H]1CC[C@]2(COC(=O)C[N+](C)(C)CCCCCCCCCCCCCC)CC[C@]3(C)C(CCC4[C@@]5(C)CC[C@H](OC(=O)C[N+](C)(C)CCCCCCCCCCCCCC)C(C)(C)C5CC[C@]43C)C12.[Cl-].[Cl-]` (stereo partly shown) [Compound 55, Lup-20(29)-ene-3,28-bis(tetradecyldimethylamoniumacetate) dichloride] as the compound, how does the Turf quality ([5]; Table 5, Jun. 3, 2002) read?
Its Turf quality is 5.10 ab.

What about the Turf quality ([5]; Table 5, Jun. 17, 2002) of the same compound?
The Turf quality was 5.2 ab.

What about the Turf quality ([5]; Table 5, May 27, 2002) of the same compound?
Its Turf quality is 3.38 ab.

What about the Turf quality ([5]; Table 6, May 8, 2002) of the same compound?
The Turf quality was 3.05 a.

What about the Turf quality ([5]; Table 6, May 13, 2002) of the same compound?
The Turf quality was 3.00 a.

And the Turf quality ([5]; Table 6, May 20, 2002)?
The Turf quality was 2.97 ab.

And the “% of area infected” value (dollar spot fungus; Table 5 c2, Jun. 3, 2002)?
The value was 28.8 a %.

What about the “% of area infected” value (dollar spot fungus; Table 5 c4, Jun. 3, 2002) of the same compound?
Its value is 24.3 a %.

And the “% of area infected” value (dollar spot fungus; Table 6, May 8, 2002)?
The value was 33.5 a %.

And the “% of area infected” value (dollar spot fungus; Table 6, May 13, 2002)?
Its value is 30.0 a %.

What about the “% of area infected” value (dollar spot fungus; Table 6, May 20, 2002) of the same compound?
Its value is 32.8 b %.

And the “% of area infected” value (dollar spot fungus; Table 6, May 27, 2002)?
Its value is 29.3 a-d %.

Which Turf quality ([5]; Table 5, Jun. 3, 2002) does the source give for `C=C(C)[C@@H]1CC[C@]2(CO)CC[C@]3(C)C(CCC4[C@@]5(C)CC[C@H](OC(=O)C[N+](C)(CCCCCCCCCC)CCCCCCCCCC)C(C)(C)C5CC[C@]43C)C12.[Cl-]` (stereo partly shown) [Compound 67, Betulin-3-(didecylmethylammoniumacetoxy) chloride] here?
The Turf quality was 6.00 a.

And the Turf quality ([5]; Table 5, Jun. 17, 2002)?
The Turf quality was 5.80 a.

What about the Turf quality ([5]; Table 5, May 27, 2002) of the same compound?
Its Turf quality is 4.85 a.

And the Turf quality ([5]; Table 6, May 8, 2002)?
The Turf quality was 3.20 a.

And the Turf quality ([5]; Table 6, May 13, 2002)?
Its Turf quality is 3.17 a.

And the Turf quality ([5]; Table 6, May 20, 2002)?
Its Turf quality is 3.55 a.

And the “% of area infected” value ([6]; Table 5 c2, Jun. 3, 2002)?
Its value is 13.0 b %.

And the “% of area infected” value ([6]; Table 5 c4, Jun. 3, 2002)?
The value was 9.0 b %.

And the “% of area infected” value ([6]; Table 6, May 8, 2002)?
Its value is 28.3 a %.

What about the “% of area infected” value ([6]; Table 6, May 13, 2002) of the same compound?
Its value is 26.0 a %.

What about the “% of area infected” value ([6]; Table 6, May 20, 2002) of the same compound?
Its value is 24.3 c %.

And the “% of area infected” value ([6]; Table 6, May 27, 2002)?
The value was 21.0 d %.

What about the “extent of dollar spot infection” value ([6]; by the end of the treatment trial, compared to the no treatment control (text summary of Tables 5 and 6)) of the same compound?
The value was “best results”.

Which results are given for `C=C(C)[C@@H]1CC[C@]2(C)CC[C@]3(C)[C@H](CC[C@@H]4[C@@]5(C)C=C(O)C(=O)C(C)(C)[C@@H]5CC[C@]43C)[C@@H]12` [Compound 85, lupeneno-1-ene-2-ol, reference compound]?
MIC [1]: 50 µg/mL (≈ 114 µM); MIC [2]: 20 µg/mL (≈ 45.6 µM); MIC [3]: 50 µg/mL (≈ 114 µM); MIC [4]: 100 µg/mL (≈ 228 µM)

Which “Approximate Minimum Inhibitory Concentration, MIC” value [1] does the source give for `C=C(C)C1CCC2(C)CCC3(C)C(CCC4C5(C)CCC(OC(=O)C=CC(=O)O)C(C)(C)C5CCC43C)C12` (stereo not shown) [Compound 86, lupeol-3-maleate, reference compound] here?
The value was 50 µg/mL.

What about the “Approximate Minimum Inhibitory Concentration, MIC” value [2] of the same compound?
The value was 10 µg/mL.

What about the “Approximate Minimum Inhibitory Concentration, MIC” value ([2]; listed as lupeol-3-maleate) of the same compound?
Its value is at most 10 µg/mL.

With `C=C(C)C1CCC2(COC(=O)CCC(=O)O)CC[C@@]3(C)C(CCC4[C@@]5(C)CCC(OC(=O)CCC(=O)O)C(C)(C)C5CC[C@]43C)C12` (stereo partly shown) [Compound 91, betulin-3,28-disuccinate, reference compound] as the compound, how does the “Approximate Minimum Inhibitory Concentration, MIC” value [3] read?
Its value is 200 µg/mL.

For `C=C(C)C1CCC2(COC(=O)CCC(=O)O)CC[C@@]3(C)C(CCC4[C@@]5(C)CCC(O)C(C)(C)C5CC[C@]43C)C12` (stereo partly shown) [Compound 92, betulin-28-succinate, reference compound], which “Approximate Minimum Inhibitory Concentration, MIC” value [3] is on record?
The value was 50 µg/mL.

With `C=C(C)[C@@H]1CC[C@]2(COC(=O)/C=C\C(=O)O)CC[C@]3(C)[C@H](CC[C@@H]4[C@@]5(C)CC[C@H](OC(=O)/C=C\C(=O)O)C(C)(C)[C@@H]5CC[C@]43C)[C@@H]12` [Compound 93, betulin-3,28-dimaleate, reference compound] as the compound, how does the “Approximate Minimum Inhibitory Concentration, MIC” value [3] read?
The value was 200 µg/mL.

And the “Approximate Minimum Inhibitory Concentration, MIC” value [4]?
The value was 200 µg/mL.

With `C=C(C)[C@@H]1CC[C@]2(COC(=O)/C=C\C(=O)O)CC[C@]3(C)[C@H](CC[C@@H]4[C@@]5(C)CC[C@H](O)C(C)(C)[C@@H]5CC[C@]43C)[C@@H]12` [Compound 94, betulin-28-maleate, reference compound] as the compound, how does the “Approximate Minimum Inhibitory Concentration, MIC” value [1] read?
The value was 200 µg/mL.

What about the “Approximate Minimum Inhibitory Concentration, MIC” value [2] of the same compound?
Its value is 200 µg/mL.

What about the “Approximate Minimum Inhibitory Concentration, MIC” value [3] of the same compound?
The value was 50 µg/mL.
